In patent US6461997B1, “Triazole sulfones having herbicidal activity” (Monsanto Technology LLC, priority 1999, dated 2002):

system: GALAP (catchweed bedstraw); test: Pre-emergence herbicidal activity, cool season; format: in vivo, Galium aparine; conditions: lowest tested rate with 80% or greater inhibition; rates 300, 100, 30, 10 g/ha; about 14 days
In short: (§1)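 GR80 values derive from percent inhibition relative to untreated plants, read roughly 14 days after sowing and pre-emergence soil-surface treatment (compound in 50:50 acetone/water; rates typically 10, 30, 100, 300 g/ha). Warm-season weeds grew at 30/21° C day/night, cool-season ones at 18/13° C; an asterisk marks activity without reaching 80% at the highest rate.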

SMILES | Pre-emergence activity GR80, GALAP
CCN(CC)C(=O)n1cnc(S(=O)(=O)C(F)(F)Br)n1 [Example 1, 3-(bromodifluoromethylsulfonyl)-1-(N,N-diethylcarbamoyl)-1,2,4-triazole] | 100 g/ha
C=C(C)CC(F)(F)S(=O)(=O)c1ncn(C(=O)N(CC)CC)n1 [Example 18] | 300 g/ha

system: LAMPU (purple deadnettle); test: Pre-emergence herbicidal activity, cool season; format: in vivo, Lamium purpureum; conditions: lowest tested rate with 80% or greater inhibition; rates 300, 100, 30, 10 g/ha; about 14 days
In short: as §1

SMILES | Pre-emergence activity GR80, LAMPU
CCN(CC)C(=O)n1cnc(S(=O)(=O)C(F)(F)Br)n1 [Example 1, 3-(bromodifluoromethylsulfonyl)-1-(N,N-diethylcarbamoyl)-1,2,4-triazole] | 30 g/ha
C=C(C)CC(F)(F)S(=O)(=O)c1ncn(C(=O)N(CC)CC)n1 [Example 18] | 300 g/ha

system: SORHA (johnsongrass (seedling)); test: Pre-plant incorporated (PPI) herbicidal activity, warm season; format: in vivo, Sorghum halepense; conditions: Sorghum halepense; PPI application, 10 g/ha; read-out: Percent inhibition SORHA
Experimental: (§2) In another set of tests, the pre-plant incorporated (PPI) activity of compounds of this invention was evaluated on the same species as for the pre-emergence tests described above. In the PPI tests the following procedure, designed to simulate PPI application, was used.
(§3) A pre-prepared topsoil mixture (described above) was placed in a pot and compacted to a depth of 1.0 to 1.25 cm from the top of the pot. Seeds of each of several monocotyledonous and dicotyledonous annual plant species were placed on top of the soil. A sufficient quantity of soil to cover the seeds and level fill the pot was weighed into an open container. A known amount of the test compound was dissolved or suspended in an organic solvent and applied by spraying to this cover soil. The cover soil was thoroughly mixed to distribute the test compound throughout the cover soil, and was then applied as a cover layer over the seeds. Untreated soil was used as a cover layer for control pots. After treatment the plants were placed in a greenhouse where they received 0.64 cm of overhead irrigation. All subsequent watering consisted of a light overhead mist and/or subirrigation as needed for germination and growth. Tables 9 and 10 below relate to warm season plant species which were placed after pre-emergence treatment in a greenhouse with a 30/21° C. day/night temperature regime. Tables 11 and 12 below relates to cool season plant species placed after pre-emergence treatment in a greenhouse or growth chamber with an 18/13° C. day/night temperature regime. Only the compounds of Examples 1, 6, 8, 11, 13 and 15-20 were included in PPI tests.
(§4) Approximately 14 days after planting and treating, the plants were observed and herbicidal efficacy recorded as percent inhibition by comparison with untreated plants.

SMILES | inhibition at 10 g/ha
CCN(CC)C(=O)n1cnc(S(=O)(=O)C(F)(F)Br)n1 [Example 1, 3-(bromodifluoromethylsulfonyl)-1-(N,N-diethylcarbamoyl)-1,2,4-triazole] | 70%
C=C(C)CC(F)(F)S(=O)(=O)c1ncn(C(=O)N(CC)CC)n1 [Example 18] | 100%

same assay, conditions: Sorghum halepense; PPI application, 30 g/ha; read-out: Percent inhibition SORHA

SMILES | inhibition at 30 g/ha
CCN(CC)C(=O)n1cnc(S(=O)(=O)C(F)(F)Br)n1 [Example 1, 3-(bromodifluoromethylsulfonyl)-1-(N,N-diethylcarbamoyl)-1,2,4-triazole] | 50%
C=C(C)CC(F)(F)S(=O)(=O)c1ncn(C(=O)N(CC)CC)n1 [Example 18] | 100%

same assay, conditions: Sorghum halepense; PPI application, 100 g/ha; read-out: Percent inhibition SORHA

SMILES | inhibition at 100 g/ha
CCN(CC)C(=O)n1cnc(S(=O)(=O)C(F)(F)Br)n1 [Example 1, 3-(bromodifluoromethylsulfonyl)-1-(N,N-diethylcarbamoyl)-1,2,4-triazole] | 100%
C=C(C)CC(F)(F)S(=O)(=O)c1ncn(C(=O)N(CC)CC)n1 [Example 18] | 100%

same assay, conditions: Sorghum halepense; PPI application, 300 g/ha; read-out: Percent inhibition SORHA

SMILES | inhibition at 300 g/ha
CCN(CC)C(=O)n1cnc(S(=O)(=O)C(F)(F)Br)n1 [Example 1, 3-(bromodifluoromethylsulfonyl)-1-(N,N-diethylcarbamoyl)-1,2,4-triazole] | 100%
C=C(C)CC(F)(F)S(=O)(=O)c1ncn(C(=O)N(CC)CC)n1 [Example 18] | 100%

same assay, conditions: Sorghum halepense; PPI application, 900 g/ha; read-out: Percent inhibition SORHA

SMILES | inhibition at 900 g/ha
CCN(CC)C(=O)n1cnc(S(=O)(=O)C(F)(F)Br)n1 [Example 1, 3-(bromodifluoromethylsulfonyl)-1-(N,N-diethylcarbamoyl)-1,2,4-triazole] | 100%
C=C(C)CC(F)(F)S(=O)(=O)c1ncn(C(=O)N(CC)CC)n1 [Example 18] | 100%

same assay, conditions: pre-plant incorporated; lowest tested rate with 80% or greater inhibition; about 14 days

SMILES | PPI activity GR80, SORHA
CCN(CC)C(=O)n1cnc(S(=O)(=O)C(F)(F)Br)n1 [Example 1, 3-(bromodifluoromethylsulfonyl)-1-(N,N-diethylcarbamoyl)-1,2,4-triazole] | 30 g/ha
C=C(C)CC(F)(F)S(=O)(=O)c1ncn(C(=O)N(CC)CC)n1 [Example 18] | 300 g/ha

system: BRAPP (broadleaf signalgrass); test: as above; format: in vivo, Brachiaria platyphylla; conditions: Urochloa platyphylla; PPI application, 10 g/ha; read-out: Percent inhibition BRAPP
Experimental: as §2, §3, §4

SMILES | inhibition at 10 g/ha
CCN(CC)C(=O)n1cnc(S(=O)(=O)C(F)(F)Br)n1 [Example 1, 3-(bromodifluoromethylsulfonyl)-1-(N,N-diethylcarbamoyl)-1,2,4-triazole] | 0%
C=C(C)CC(F)(F)S(=O)(=O)c1ncn(C(=O)N(CC)CC)n1 [Example 18] | 0%

same assay, conditions: Urochloa platyphylla; PPI application, 30 g/ha; read-out: Percent inhibition BRAPP

SMILES | inhibition at 30 g/ha
CCN(CC)C(=O)n1cnc(S(=O)(=O)C(F)(F)Br)n1 [Example 1, 3-(bromodifluoromethylsulfonyl)-1-(N,N-diethylcarbamoyl)-1,2,4-triazole] | 0%
C=C(C)CC(F)(F)S(=O)(=O)c1ncn(C(=O)N(CC)CC)n1 [Example 18] | 0%

same assay, conditions: Urochloa platyphylla; PPI application, 100 g/ha; read-out: Percent inhibition BRAPP

SMILES | inhibition at 100 g/ha
CCN(CC)C(=O)n1cnc(S(=O)(=O)C(F)(F)Br)n1 [Example 1, 3-(bromodifluoromethylsulfonyl)-1-(N,N-diethylcarbamoyl)-1,2,4-triazole] | 100%
C=C(C)CC(F)(F)S(=O)(=O)c1ncn(C(=O)N(CC)CC)n1 [Example 18] | 0%

same assay, conditions: Urochloa platyphylla; PPI application, 300 g/ha; read-out: Percent inhibition BRAPP

SMILES | inhibition at 300 g/ha
CCN(CC)C(=O)n1cnc(S(=O)(=O)C(F)(F)Br)n1 [Example 1, 3-(bromodifluoromethylsulfonyl)-1-(N,N-diethylcarbamoyl)-1,2,4-triazole] | 90%
C=C(C)CC(F)(F)S(=O)(=O)c1ncn(C(=O)N(CC)CC)n1 [Example 18] | 100%

same assay, conditions: Urochloa platyphylla; PPI application, 900 g/ha; read-out: Percent inhibition BRAPP

SMILES | inhibition at 900 g/ha
CCN(CC)C(=O)n1cnc(S(=O)(=O)C(F)(F)Br)n1 [Example 1, 3-(bromodifluoromethylsulfonyl)-1-(N,N-diethylcarbamoyl)-1,2,4-triazole] | 100%
C=C(C)CC(F)(F)S(=O)(=O)c1ncn(C(=O)N(CC)CC)n1 [Example 18] | 100%

same assay, conditions: pre-plant incorporated; lowest tested rate with 80% or greater inhibition; about 14 days

SMILES | PPI activity GR80, BRAPP
CCN(CC)C(=O)n1cnc(S(=O)(=O)C(F)(F)Br)n1 [Example 1, 3-(bromodifluoromethylsulfonyl)-1-(N,N-diethylcarbamoyl)-1,2,4-triazole] | 100 g/ha
C=C(C)CC(F)(F)S(=O)(=O)c1ncn(C(=O)N(CC)CC)n1 [Example 18] | 100 g/ha

system: LAMPU (purple deadnettle); test: Pre-plant incorporated (PPI) herbicidal activity, cool season; format: in vivo, Lamium purpureum; conditions: Lamium purpureum; weed, PPI application, 10 g/ha; read-out: Percent inhibition LAMPU
Experimental: as §2, §3, §4

SMILES | inhibition at 10 g/ha
C=C(C)CC(F)(F)S(=O)(=O)c1ncn(C(=O)N(CC)CC)n1 [Example 18] | 0%

same assay, conditions: Lamium purpureum; weed, PPI application, 30 g/ha; read-out: Percent inhibition LAMPU

SMILES | inhibition at 30 g/ha
CCN(CC)C(=O)n1cnc(S(=O)(=O)C(F)(F)Br)n1 [Example 1, 3-(bromodifluoromethylsulfonyl)-1-(N,N-diethylcarbamoyl)-1,2,4-triazole] | 80%
C=C(C)CC(F)(F)S(=O)(=O)c1ncn(C(=O)N(CC)CC)n1 [Example 18] | 0%

same assay, conditions: Lamium purpureum; weed, PPI application, 100 g/ha; read-out: Percent inhibition LAMPU

SMILES | inhibition at 100 g/ha
CCN(CC)C(=O)n1cnc(S(=O)(=O)C(F)(F)Br)n1 [Example 1, 3-(bromodifluoromethylsulfonyl)-1-(N,N-diethylcarbamoyl)-1,2,4-triazole] | 70%

same assay, conditions: Lamium purpureum; weed, PPI application, 300 g/ha; read-out: Percent inhibition LAMPU

SMILES | inhibition at 300 g/ha
CCN(CC)C(=O)n1cnc(S(=O)(=O)C(F)(F)Br)n1 [Example 1, 3-(bromodifluoromethylsulfonyl)-1-(N,N-diethylcarbamoyl)-1,2,4-triazole] | 95%
C=C(C)CC(F)(F)S(=O)(=O)c1ncn(C(=O)N(CC)CC)n1 [Example 18] | 0%

same assay, conditions: Lamium purpureum; weed, PPI application, 900 g/ha; read-out: Percent inhibition LAMPU

SMILES | inhibition at 900 g/ha
CCN(CC)C(=O)n1cnc(S(=O)(=O)C(F)(F)Br)n1 [Example 1, 3-(bromodifluoromethylsulfonyl)-1-(N,N-diethylcarbamoyl)-1,2,4-triazole] | 100%
C=C(C)CC(F)(F)S(=O)(=O)c1ncn(C(=O)N(CC)CC)n1 [Example 18] | 70%

same assay, conditions: pre-plant incorporated; lowest tested rate with 80% or greater inhibition; about 14 days

SMILES | PPI activity GR80, LAMPU
CCN(CC)C(=O)n1cnc(S(=O)(=O)C(F)(F)Br)n1 [Example 1, 3-(bromodifluoromethylsulfonyl)-1-(N,N-diethylcarbamoyl)-1,2,4-triazole] | 100 g/ha
C=C(C)CC(F)(F)S(=O)(=O)c1ncn(C(=O)N(CC)CC)n1 [Example 18] | 10 g/ha

system: AGSST (creeping bentgrass); test: as above; format: in vivo, Agrostis stolonifera; conditions: Agrostis stolonifera; weed, PPI application, 10 g/ha; read-out: Percent inhibition AGSST
Experimental: as §2, §3, §4

SMILES | inhibition at 10 g/ha
C=C(C)CC(F)(F)S(=O)(=O)c1ncn(C(=O)N(CC)CC)n1 [Example 18] | 100%

same assay, conditions: Agrostis stolonifera; weed, PPI application, 30 g/ha; read-out: Percent inhibition AGSST

SMILES | inhibition at 30 g/ha
CCN(CC)C(=O)n1cnc(S(=O)(=O)C(F)(F)Br)n1 [Example 1, 3-(bromodifluoromethylsulfonyl)-1-(N,N-diethylcarbamoyl)-1,2,4-triazole] | 100%
C=C(C)CC(F)(F)S(=O)(=O)c1ncn(C(=O)N(CC)CC)n1 [Example 18] | 60%

same assay, conditions: Agrostis stolonifera; weed, PPI application, 100 g/ha; read-out: Percent inhibition AGSST

SMILES | inhibition at 100 g/ha
CCN(CC)C(=O)n1cnc(S(=O)(=O)C(F)(F)Br)n1 [Example 1, 3-(bromodifluoromethylsulfonyl)-1-(N,N-diethylcarbamoyl)-1,2,4-triazole] | 100%
C=C(C)CC(F)(F)S(=O)(=O)c1ncn(C(=O)N(CC)CC)n1 [Example 18] | 100%

same assay, conditions: Agrostis stolonifera; weed, PPI application, 300 g/ha; read-out: Percent inhibition AGSST

SMILES | inhibition at 300 g/ha
CCN(CC)C(=O)n1cnc(S(=O)(=O)C(F)(F)Br)n1 [Example 1, 3-(bromodifluoromethylsulfonyl)-1-(N,N-diethylcarbamoyl)-1,2,4-triazole] | 100%
C=C(C)CC(F)(F)S(=O)(=O)c1ncn(C(=O)N(CC)CC)n1 [Example 18] | 99%

same assay, conditions: Agrostis stolonifera; weed, PPI application, 900 g/ha; read-out: Percent inhibition AGSST

SMILES | inhibition at 900 g/ha
CCN(CC)C(=O)n1cnc(S(=O)(=O)C(F)(F)Br)n1 [Example 1, 3-(bromodifluoromethylsulfonyl)-1-(N,N-diethylcarbamoyl)-1,2,4-triazole] | 100%
C=C(C)CC(F)(F)S(=O)(=O)c1ncn(C(=O)N(CC)CC)n1 [Example 18] | 100%

same assay, conditions: pre-plant incorporated; lowest tested rate with 80% or greater inhibition; about 14 days

SMILES | PPI activity GR80, AGSST
CCN(CC)C(=O)n1cnc(S(=O)(=O)C(F)(F)Br)n1 [Example 1, 3-(bromodifluoromethylsulfonyl)-1-(N,N-diethylcarbamoyl)-1,2,4-triazole] | 30 g/ha
C=C(C)CC(F)(F)S(=O)(=O)c1ncn(C(=O)N(CC)CC)n1 [Example 18] | 10 g/ha

system: SETVI (green foxtail); test: Post-emergence herbicidal activity, cool season; format: in vivo, Setaria viridis; conditions: abraded plants sprayed at 300, 100, 30 and 10 g/ha; about 14 days after treatment
In short: (§5)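 Post-emergence foliar spray; plants abraded (garnet 200w, ~850 kPa sandblast) before application. Rates 300/100/30/10 g/ha in 50:50 acetone:water, 3,100 l/ha, 511 kPa. Greenhouse 18/13° C. day/night; % inhibition vs abraded unsprayed controls at ~14 days after treatment, GR80 derived.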

SMILES | Post-emergence activity GR80, SETVI
CCN(CC)C(=O)n1cnc(S(=O)(=O)C(F)(F)Br)n1 [Example 1, 3-(bromodifluoromethylsulfonyl)-1-(N,N-diethylcarbamoyl)-1,2,4-triazole] | [empty]
C=C(C)CC(F)(F)S(=O)(=O)c1ncn(C(=O)N(CC)CC)n1 [Example 18] | [empty]

system: AGRRE (quackgrass (seedling)); test: Post-emergence herbicidal activity, cool season; format: in vivo, Elymus repens; conditions: abraded plants sprayed at 300, 100, 30 and 10 g/ha; about 14 days after treatment
In short: as §5

SMILES | Post-emergence activity GR80, AGRRE
CCN(CC)C(=O)n1cnc(S(=O)(=O)C(F)(F)Br)n1 [Example 1, 3-(bromodifluoromethylsulfonyl)-1-(N,N-diethylcarbamoyl)-1,2,4-triazole] | [empty]
C=C(C)CC(F)(F)S(=O)(=O)c1ncn(C(=O)N(CC)CC)n1 [Example 18] | [empty]
